Patent publication US20170239182A1, “PHARMACEUTICAL FORMULATIONS OF AND METHODS TO PREPARE CHELATING AGENTS FOR EFFICIENT METAL REMOVAL TREATMENT SYSTEMS” (ZONEONE PHARMA, INC., priority 2014, published 2017)
Structures can show the parent of a compound that is named as a salt.

Tests used:
[1] = Plasma PK of DFO after IV administration of liposomal DFO or Desferal to mice; format: in vivo, CF-1 female mice; settings: 100 mg/kg
Procedure: Liposomes containing egg PC/Chol (3 mol/2 mol, LDFO-1), egg PC/DOPG/Chol (2.7 mol/0.3 mol/2 mol, LDFO-2), and HSPC/Chol (3 mol/2 mol, LDFO-4) containing 500 mM ammonium sulfate were prepared as in Example 1. DFO was remote loaded as in Example 20.
After loading the liposomes were purified by dialysis versus HBS pH 6.5. The liposomes were sterilized by filtration through 0.2 um PES filters and analyzed for drug and lipid content. The liposomal DFO were administered to CF-1 female mice at 100 mg/kg (n=3) and at various times the animals were sacrificed and blood taken.
After processing to plasma, DFO was extracted from plasma by mixing with 6 volumes of methanol containing 0.1% trifluoroacetic acid in an epppendorf tube. The mixtures were vortexed twice for 10 seconds then placed at −80° C. for 1 h. The samples were thawed and centrifuged for 12,000 rpm for 10 min at 4° C. and the supernatant analyzed for DFO by HPLC as described herein. […] By comparison DFO was undetectable beyond 1 h after dosing with Desferal®.

[2] = tested on: Iron Overloaded Mouse Model; test: Liver iron removal from iron overloaded mouse model (ferrozine assay); format: in vivo, mice; settings: IV 100 mg/kg chelator on day 7 and day 10 after iron-dextran 100 mg/kg Fe
Procedure: LDFO formulations were prepared as described in Example 1. Both formulations were composed of HSPC/cholesterol (3/0.5 (mol/mol)). One formulation was prepared using 250 mM ammonium sulfate (LDFO-AS) as the trapping agent and the second formulation was prepared using 250 mM ascorbate phosphate (LDFO-AP) as the trapping agent and all other components and DFO loading procedures of the formulations were identical. Mice were overloaded with a single IV injection of iron-dextran at 100 mg/kg Fe. Overloaded mice were treated with each formulation IV at 100 mg/kg chelator on day 7 and day 10. The mice were sacrificed after the second treatment and the livers were analyzed for iron content using a ferrozine assay (Riemer et al. 2004)

SMILES | DFO in plasma ([1]; beyond 1 h after dosing) | initial dose (ID) of DFO retained in the plasma ([1]; IV, 24 h) | mean liver iron content [2] [mg/kg]
CC(=O)N(O)CCCCCNC(=O)CCC(=O)N(O)CCCCCNC(=O)CCC(=O)N(O)CCCCCN [Desferal, deferoxamine mesylate] | undetectable | undetectable | –
CC(=O)N(O)CCCCCNC(=O)CCC(=O)N(O)CCCCCNC(=O)CCC(=O)N(O)CCCCCN [free DFO, Deferoxamine] | – | – | 229
